This note sets out measurements from patent US20260226034A1 (The Rockefeller University, priority 2023, published 2026).

Read-outs that look alike come from different tables or passages of the source.

The test concerns the target NSP14 (Severe acute respiratory syndrome coronavirus 2, UniProt P0DTD1). The test is described as follows: NSP14 MTase inhibition assay at 37° C. (MTase-Glo SAH detection). The test is classed as biochemical, SARS-CoV-2. The conditions noted are these: 0.3 nM NSP14, 2.5 μM SAM, 2.5 μM GpppA RNA, read-out: Nsp14 Mtase Inh. IC50.

A word on the IC50: it is the concentration at which inhibition is half-maximal. Consider `Cc1c(S(=O)(=O)c2cc(Cl)c3[nH]ncc3c2)cc(C(=O)N[C@@H]2CCN(c3ccc(C#N)cn3)C2)n1C` [A.106], for which, for the setting “45 min at 37° C.”, the IC50 was less than 0.15 nM.
For the compound `Cc1c(S(=O)(=O)c2ccc3[nH]ncc3c2)cc(C(=O)NCc2c(Cl)cnn2C)n1CC(F)F` [B.186], the IC50 (37° C.) is 1.1 nM.
On the same count and under the same terms, next, `Cc1c(S(=O)(=O)c2ccc3[nH]ncc3c2)cc(C(=O)N[C@H]2Cc3ccccc32)n1C` (single isomer, unassigned) [B.171]: 2.7 nM.
The same measure, in the same setting: next, `Cc1c(S(=O)(=O)c2ccc3[nH]ncc3c2)cc(C(=O)NCc2c(F)ccc3c2N(C)C(=O)C3(F)F)n1C` [B.74]: 0.5 nM.
`Cc1c(S(=O)(=O)c2ccc3[nH]ncc3c2)cc(C(=O)N[C@H]2CCc3c(F)ccc(F)c32)n1C` (single isomer, unassigned) [B.139]: the IC50 (37° C.) was found to be 1.3 nM.
Still for that read-out and setting: then `Cc1c(S(=O)(=O)c2ccc3[nH]ncc3c2)cc(C(=O)NCc2cccc(OCC(F)(F)F)c2)n1C` [B.77], with 2.9 nM.
With `Cc1c(S(=O)(=O)c2ccccc2)cc(C(=O)NCc2c(F)ccc3cnn(C)c23)n1C` [A.7, N-((6-fluoro-1-methyl-1H-indazol-7-yl)methyl)-1,5-dimethyl-4-(phenylsulfonyl)-1H-pyrrole-2-carboxamide], the IC50 (45 min at 37° C.) was found to be 1.7 nM.
In the case of `Cc1c(S(=O)(=O)c2ccc3[nH]ncc3c2)cc(C(=O)NCc2cccn3ncnc23)n1C` [B.148], where the note is “37° C.”, the IC50 was determined as 7.4 nM.
As for `Cc1c(S(=O)(=O)c2ccc3[nH]ncc3c2)cc(C(=O)NCc2cccn3nccc23)n1C` [A.13], for the setting “45 min at 37° C.”, the IC50 turned out to be 7.2 nM.
The same measure, in the same setting: then `Cc1c(S(=O)(=O)c2cnc3c(cnn3C)c2)cc(C(=O)NCc2cccc3cnn(C)c23)n1C` [A.29], with 160 nM.
For `Cc1c(S(=O)(=O)c2ccc3[nH]ncc3c2)cc(C(=O)NCc2cnc3ccccn23)n1C` [B.138], the IC50 (37° C.) came out at 6.3 nM.
Still for that read-out and setting: then `Cc1c(S(=O)(=O)c2ccc3c(cnn3C)c2)cc(C(=O)NCc2c(F)ccnc2N2CCC(C(=O)O)C2)n1C` (stereo not shown) [B.48], with 0.15 nM.
Still for that read-out and setting: then `Cc1c(S(=O)(=O)c2cc(Cl)c3[nH]ncc3c2)cc(C(=O)NCc2c(Cl)cnn2C)n1C` [B.184], with less than 0.15 nM.
Still for that read-out and setting: then `Cc1c(S(=O)(=O)c2ccc3[nH]ncc3c2)cc(C(=O)NCc2c[nH]c(=O)c3cccnc23)n1C` [B.159], with 0.43 nM; and `Cc1c(S(=O)(=O)c2cc(F)c3[nH]ncc3c2)cc(C(=O)NCc2c(F)ccc3cnn(C4CC4)c23)n1C` [B.63], with less than 0.15 nM.
For `Cc1c(S(=O)(=O)c2ccc3[nH]ncc3c2)cc(C(=O)NCc2ccc(=O)n(C)n2)n1C` [B.133], the IC50 (37° C.) is 7.6 nM.
For `Cc1c(S(=O)(=O)c2cc(F)c3[nH]ncc3c2)cc(C(=O)N[C@@H](C)c2cccc3cnn(C4CC4)c23)n1C` (single isomer, unassigned) [B.87], the IC50 (37° C.) came to 0.82 nM.
For the compound `Cc1c(S(=O)(=O)c2ccc3[nH]ncc3c2)cc(C(=O)N[C@H]2CN(c3ncc(F)cn3)CC23CC3)n1C` [A.62], the IC50 (45 min at 37° C.) amounted to 0.41 nM.
Regarding `Cc1c(S(=O)(=O)c2ccc3[nH]nc(F)c3c2)cc(C(=O)N[C@@H]2CCN(c3ccnnc3)C2)n1C` [A.112], the IC50 (45 min at 37° C.) amounted to 0.53 nM.
Consider `Cc1c(S(=O)(=O)c2cc(C#N)c3[nH]ncc3c2)cc(C(=O)NCc2cccc3cnn(C4CC4)c23)n1C` [B.106], for which the IC50 (37° C.) turned out to be 0.32 nM.
Regarding `Cc1c(S(=O)(=O)c2ccc3[nH]ncc3c2)cc(C(=O)N[C@@H]2CCN(Cc3ccc(F)cn3)C2)n1C` [A.104], the IC50 (45 min at 37° C.) was 4.3 nM.
As to `Cc1c(S(=O)(=O)c2ccc3[nH]ncc3c2)cc(C(=O)NCc2c(Cl)cnn2C)n1C` [B.142], for the setting “37° C.”, the 50% inhibitory concentration (IC50) came out at 1.4 nM.
As for `Cc1c(S(=O)(=O)c2ccc3[nH]ncc3c2)cc(C(=O)NCc2ccccc2)n1C` [B.67], the IC50 (37° C.) was 2.6 nM.
As for `Cc1c(S(=O)(=O)c2ccc3[nH]ncc3c2)cc(C(=O)NCc2c(F)cncc2F)n1C` [B.107], the IC50 (37° C.) was 0.12 nM.
With `Cc1c(S(=O)(=O)c2ccc3[nH]nc(F)c3c2)cc(C(=O)NCc2c(F)ccc3cnn(C4CC4)c23)n1C` [B.46], the IC50 (37° C.) was 0.53 nM.
On the same count and under the same terms, next, `Cc1c(S(=O)(=O)c2ccc3[nH]ncc3c2)cc(C(=O)NCc2ccc(N(C)C)nn2)n1C` [B.73]: 116 nM; `Cc1c(S(=O)(=O)c2ccc3[nH]ncc3c2)cc(C(=O)NC2CCc3ncccc32)n1C` (stereo not shown) [B.55]: 5.6 nM.
Take `COc1ccc(N2CC[C@@H](NC(=O)c3cc(S(=O)(=O)c4ccc5[nH]ncc5c4)c(C)n3C)C2)nn1` [A.88]: the IC50 (45 min at 37° C.) was less than 0.15 nM.
Consider `Cc1c(S(=O)(=O)c2ccc3[nH]ncc3c2)cc(C(=O)NCc2ccccc2S(C)(=O)=O)n1C` [B.56], for which the IC50 (37° C.) is 2.9 nM.
Consider `Cc1c(S(=O)(=O)c2ccc3[nH]ncc3c2)cc(C(=O)N[C@@H]2CCN(c3cccc(C(F)(F)F)c3)C2)n1C` [A.100], for which, for the setting “45 min at 37° C.”, the IC50 is 2.9 nM.
For `Cc1c(S(=O)(=O)c2cc(F)c3[nH]ncc3c2)cc(C(=O)NCc2c(F)ccc3ncn(C4CC4)c23)n1C` [B.102], the IC50 (37° C.) was less than 0.15 nM.
In the case of `Cc1c(S(=O)(=O)c2ccc3[nH]ncc3c2)cc(C(=O)N[C@@H]2CCN(c3cnc(F)cn3)C2)n1C` [A.50], the half-inhibitory concentration (IC50) (45 min at 37° C.) is less than 0.15 nM.
Turning to `Cc1c(S(=O)(=O)c2ccc3[nH]nc(F)c3c2)cc(C(=O)NCc2c(F)ccc3c2N(C)C(=O)C3(F)F)n1C` [B.105], the IC50 (37° C.) stood at 0.15 nM.
On to `Cc1c(S(=O)(=O)c2ccc3c(cnn3C)c2)cc(C(=O)NCc2c(F)ccnc2N2CCC(C(=O)NS(C)(=O)=O)C2)n1C` (stereo not shown) [B.182], for which the IC50 (37° C.) is less than 0.15 nM.
As to `Cc1cc(C)c(CNC(=O)c2cc(S(=O)(=O)c3ccc4[nH]ncc4c3)c(C)n2C)c(=O)[nH]1` [B.161], the IC50 (37° C.) stood at 2.7 nM.
For `Cc1c(S(=O)(=O)c2cc(F)c3[nH]ncc3c2)cc(C(=O)N[C@@H]2CCN(c3ncc(F)cn3)C2)n1C` [A.40], the IC50 (45 min at 37° C.) was less than 0.15 nM.
For `Cc1c(S(=O)(=O)c2ccc3[nH]ncc3c2)cc(C(=O)NCc2c[nH]c3ncccc23)n1C` [B.132], under “37° C.”, the IC50 was 0.6 nM.
On the same count and under the same terms, next, `Cc1c(S(=O)(=O)c2cnc3[nH]ncc3c2)cc(C(=O)NCc2cccc3cnn(C4CC4)c23)n1C` [B.37]: 10 nM; `Cc1c(S(=O)(=O)c2ccc3[nH]ncc3c2)cc(C(=O)NCc2c[nH]c(=O)c3cnccc23)n1C` [B.130]: less than 0.15 nM.
As to `COc1ncc(N2CC[C@@H](NC(=O)c3cc(S(=O)(=O)c4ccc5[nH]ncc5c4)c(C)n3C)C2)cn1` [A.124], the IC50 (45 min at 37° C.) turned out to be 0.23 nM.
Still for that read-out and setting: then `Cc1c(S(=O)(=O)c2ccc3c(cnn3C)c2)cc(C(=O)NCc2c(F)ccc3cnn(C)c23)n1C` [A.18], with 18 nM.
On to `Cc1c(S(=O)(=O)c2ccc3[nH]ncc3c2)cc(C(=O)NCc2c(F)ccc(=O)n2C)n1C` [B.179], for which the IC50 (37° C.) is less than 0.15 nM.
Same read-out and setting: next, `Cc1c(S(=O)(=O)c2ccc3[nH]ncc3c2)cc(C(=O)NNc2c(F)cccc2F)n1C` [B.75]: 9.6 nM.
As to `Cc1c(S(=O)(=O)c2cc(Cl)cc(C#N)c2)cc(C(=O)NCc2c(Cl)cnn2C)n1C` [B.193], where the note is “37° C.”, the concentration for half-maximal inhibition (IC50) came to 6.4 nM.
Turning to `Cc1c(S(=O)(=O)c2ccc3c(=O)[nH]cnc3c2)cc(C(=O)NCc2cccc3cnn(C)c23)n1C` [B.8], the IC50 (37° C.) is 71 nM.
With `Cc1c(S(=O)(=O)c2ccc3[nH]ncc3c2)cc(C(=O)NCc2c(F)ccc3c2N(C)C(=O)C32CC2)n1C` [B.145], where the note is “37° C.”, the IC50 is less than 0.15 nM.
Still for that read-out and setting: next, `Cc1c(S(=O)(=O)c2ccc3[nH]ncc3c2)cc(C(=O)NCc2ccc(F)c3cnn(C)c23)n1C` [B.36]: 0.41 nM; `Cc1c(S(=O)(=O)c2ccc3[nH]ncc3c2)cc(C(=O)NCc2c(F)ccc3c2N(C)C(=O)C3(C)C)n1C` [B.119]: 0.21 nM; `Cc1c(S(=O)(=O)c2ccc3[nH]ncc3c2)cc(C(=O)NCc2c(F)cc(F)cc2F)n1C` [B.86]: 0.41 nM.
For `Cc1c(S(=O)(=O)c2ccc3[nH]ncc3c2)cc(C(=O)NC2Cc3ccccc32)n1C` (stereo not shown) [B.120], the IC50 (37° C.) came out at 1.2 nM.
In the case of `Cc1c(S(=O)(=O)c2ccc3[nH]ncc3c2)cc(C(=O)NCc2c(F)ccc3ncn(C4CC4)c23)n1C` [B.18], the IC50 (37° C.) is less than 0.15 nM.
With `Cc1c(S(=O)(=O)c2ccc3[nH]ncc3c2)cc(C(=O)N[C@@H]2CCN(c3ccn4nccc4c3)C2)n1C` [A.60], the IC50 (45 min at 37° C.) came to 0.28 nM.
Same read-out and setting: then `Cc1c(S(=O)(=O)c2ccc3[nH]ncc3c2)cc(C(=O)N[C@@H]2CCN(c3nccc(C(F)(F)F)n3)C2)n1C` [A.66], with 0.81 nM.
Still for that read-out and setting: then `Cc1c(S(=O)(=O)c2ccc3[nH]ncc3c2)cc(C(=O)N[C@@H]2CCN(c3cnn(C)c(=O)c3)C2)n1C` [A.111], with less than 0.15 nM; and `Cc1c(S(=O)(=O)c2ccc3[nH]ncc3c2)cc(C(=O)N[C@@H]2CCN(c3ncc(C(F)(F)F)cn3)C2)n1C` [A.52], with 0.3 nM.
With `COc1ccc(CNC(=O)c2cc(S(=O)(=O)c3ccc4[nH]nc(F)c4c3)c(C)n2C)c(C(F)(F)F)n1` [B.176], the IC50 (37° C.) is 7 nM.
With `Cc1c(S(=O)(=O)c2ccc3[nH]ncc3c2)cc(C(=O)N[C@@H]2CCN(c3ccc(C(F)(F)F)cn3)C2)n1C` [A.65], the IC50 (45 min at 37° C.) amounted to 1 nM.
On to `Cc1c(S(=O)(=O)c2ccc3[nH]ncc3c2)cc(C(=O)NCc2c(F)cc(CCN(C)C)cc2F)n1C` [B.114], for which the IC50 (37° C.) was 184 nM.
Take `Cc1c(S(=O)(=O)c2ccc3[nH]ncc3c2)cc(C(=O)N[C@@H]2CCN(c3cccc(C(F)(F)F)n3)C2)n1C` [A.38]: where the note is “45 min at 37° C.”, the IC50 amounted to 0.8 nM.
Take `Cc1c(S(=O)(=O)c2ccc3[nH]ncc3c2)cc(C(=O)NCc2cccnc2C(F)(F)F)n1C` [B.53]: the IC50 (37° C.) worked out at 7 nM.
Take `COCCn1c(C(=O)N[C@@H]2CCN(c3ncc(F)cn3)C2)cc(S(=O)(=O)c2ccc3[nH]ncc3c2)c1C` [A.91]: for the setting “45 min at 37° C.”, the IC50 was found to be 0.17 nM.
`Cc1c(S(=O)(=O)c2ccc3[nH]ncc3c2)cc(C(=O)NCc2cccc3cnn(C)c23)n1C` [A.3]: the IC50 (45 min at 37° C.) came to 0.35 nM.
As to `Cc1c(S(=O)(=O)c2ccc3[nH]ncc3c2)cc(C(=O)NC(C)c2ccnn2C)n1C` (racemic) [B.172], the IC50 (37° C.) was 24 nM.
As for `Cc1c(S(=O)(=O)c2ccc3[nH]ncc3c2)cc(C(=O)NC2(CO)CCN(c3ncc(F)cn3)C2)n1C` (single isomer, unassigned) [A.117, 4-((1H-indazol-5-yl)sulfonyl)-N-(1-(5-fluoropyrimidin-2-yl)-3-(hydroxymethyl)pyrrolidin-3-yl)-1,5-dimethyl-1H-pyrrole-2-carboxamide], the IC50 (45 min at 37° C.) was found to be 2.8 nM.
